From publication PMC8704911, “Novel Combinatorial Strategy Using Thermal Inkjet Bioprinting, Chemotherapy, and Radiation on Human Breast Cancer Cells; an In-Vitro Cell Viability Assessment” (Materials, 2021)
Read-outs that look alike come from different tables or passages of the source.

Columns and labels:
MDA-MB-231 cells = conditions: H2O2 exposure, RT = 20 Gy (table head; Table 6 title says 10 Gray in 3 fractions)
MCF-10A cells = conditions: H2O2 exposure
MCF7 cells = conditions: H2O2 exposure
Method: PD 0332991 HCL (Palbociclib) and letrozole (Let; Formula: C17H11N5) were obtained from Fisher Scientific (Waltham, MA, USA). Palbociclib was dissolved in dimethyl sulfoxide (DMSO) to obtain a stock solution of 1 mM. Letrozole was dissolved in DMSO as a 100 mM stock solution. Drugs were serially diluted to determine the cytotoxic concentration 50% (CC50) of the TIB and manually seeded cell samples required to kill 50% of the cell population. Additionally, the CC50 values were determined by using the cytotoxicity values obtained experimentally and the linear interpolator webpage (https://www.johndcook.com/interpolator.html (accessed on 16 December 2021)) as previously described. […] TIB and MS MCF7 cells were incubated for 24 h prior to drug exposure. The same procedure explained in Section 2.5 was followed to determine cell viability.
Approximately, 1.2 × 10^6 cells/mL were resuspended in 1x PBS and used as the bioink cell solution. Modified inkjet cartridges were sonicated in deionized water for 15 min and tested in a previously modified thermal inkjet printer (HP Deskjet 340 Printer, HP, Palo Alto, CA, USA) inside of a biological safety cabinet. Next, 100 µL of cell solution was added to a modified sterile inkjet printer cartridge. The cell solution was bioprinted over one-half of the 96-well plate containing 200 µL of pre-incubated media. Manually seeded cells (MS) were added to the other half of the 96-well plate. Both TIB and MS cells were incubated immediately after with two media changes first at three days post bioprinting and then prior to the drug treatments.
Thermal inkjet bioprinted and manually seeded MCF7 cells were incubated for 5 days post bioprinting with two media changes to allow cells to settle and grow in their new environment. On the 5th day, each well-containing cell was adjusted to 10, 50, 100, and 150 µM PD and 10 µM Let. Letrozole remained constant for all treatments at 10 µM and is referred to as ##.# µM PD-Let. After 12 h post inoculation then at 24-h intervals for five consecutive days, all PD-Let-treated and non-treated cells were exposed to fractionated irradiation (RT) of 2, 4 (twice), and 5 (twice) Gray (Gy) for a cumulative dose of 10 and 20 Gy. Cell media was replenished after cumulative irradiation exposure of 10 Gy.
Cytotoxicity was assessed using an automated live-cell differential nuclear staining (DNS) imaging assay. […] Cytotoxicity was evaluated 12 h post irradiation by using the live-cell differential nuclear staining […] assay utilizing Hoechst 33342 and propidium iodide (PI) stains as previously described. […] Images of cells from individual wells used to quantify their viability profiles were independently captured by using the IN Cell Analyzer 2000 multi-well plate reader bioimager system (GE Healthcare, Systems, Chicago, IL, USA). […]

Structure (SMILES): OO [H2O2]
- Mean % of Live Cells MS (MDA-MB-231 cells): 0.4%
- Mean % of Live Cells TIB (MDA-MB-231 cells): 0.0%
- Mean % of Live Cells MS (MCF-10A cells; RT = 0): 0.00%
- Mean % of Live Cells TIB (MCF-10A cells; RT = 0): 0.0%
- Mean % of Live Cells TIB (MCF-10A cells; RT = 10 gray in 3 fractions, first column): 2.9%
- Mean % of Live Cells TIB (MCF-10A cells; RT = 10 gray in 3 fractions, second column so headed): 2.8%
- Mean % of Live Cells MS (MCF-10A cells; RT = 20 Gray in 5 fractions): 1.9%
- Mean % of Live Cells TIB (MCF-10A cells; RT = 20 Gray in 5 fractions): 0.0%
- Mean % of Live Cells MS (MCF7 cells; RT = 10 gray in 3 fractions): 15.4%
- Mean % of Live Cells TIB (MCF7 cells; RT = 10 gray in 3 fractions): 12.1%
- Mean % of Live Cells MS (MCF7 cells; RT = 20 gray in 5 fractions): 0.3%
- Mean % of Live Cells TIB (MCF7 cells; RT = 20 gray in 5 fractions): 0.0%
